{
  "source": "patent US7122294B2",
  "about": "“Photoacid generators with perfluorinated multifunctional anions” (3M Innovative Properties Company, priority 2003, dated 2006)",
  "key": {"[1]": {"experiment": "Volatility by vacuum distillation from 100% H2SO4", "assay_type": "physicochemical", "protocol": "This example describes an unsuccessful attempt to vacuum distill the difunctional perfluoroorganic disulfonic acid, HO3S(CF2)4SO3H, illustrating the very low volatility of this diacid compared to monofunctional perfluoroalkanesulfonic acids of even higher molecular weight, like C8F17SO3H. The dipotassium salt, KO3S(CF2)4SO3K (40.0 g) and 100% H2SO4 (241 g) were charged to a vacuum distillation apparatus comprising a 250 mL, three-necked flask equipped with a heating mantle, magnetic stirring bar, an insulated short path distillation head and a 100 mL receiver flask. The pot temperature and head temperature were continuously monitored with J-type thermocouple probes. […] The pressure was reduced to 3.6 Torr and the pot temperature raised to 178° C., but still there was no boiling or distillation. The pressure was reduced further and additional heat was applied to the pot to force distillation. Distillate eventually started to collect at a pot temperature of 196° C. and a pressure of 1.75 Torr. A total of 73.3 g of distillate was collected between 184–186° C. (head temperature) before the distillation was terminated. Since this represents 222% of the theoretical HO3S(CF2)4SO3H yield, it was surmised that the distillate was probably mostly sulfuric acid. The presence of significant H2SO4 in the distillate was confirmed by precipitation of BaSO4 upon treatment of an aqueous solution of the distillate with BaCl2.\nThe remaining pot retains were diluted in about 700 mL of water and treated with 350 mL of tributylamine with stirring. A white solid precipitate presumed to be Bu3NH+−O3S(CF2)4SO3^−Bu3NH^+ formed which was isolated by suction filtration washed with three portions of water and air-dried by suction to yield 44.07 g (66% of theory). […] Thus, even though the molecular weight of this monofunctional acid is 38% greater than that of HO3S(CF2)4SO3H, it is much more volatile and distills at much lower temperature than the difunctional acid. […]"}, "[2]": {"experiment": "Thermal gravimetric analysis (TGA), onset of thermal decomposition", "assay_type": "physicochemical", "conditions": "under nitrogen, ramp 10° C. per minute", "protocol": "TGA was performed on a Perkin-Elmer Instruments TGA Model 7 in an open platinum pan. The onset of thermal decomposition, Td, was taken as the thermal decomposition temperature of the photoacid generators and was determined under nitrogen atmosphere using a temperature ramp of 10° C. per minute. The onset temperature was determined by the intersection of tangents to the low temperature portion of the baseline and the first inflection point in the wt % vs. temperature curve."}, "[3]": {"experiment": "Photo-DSC/DSC cationic curing activity of PAGs in Epon 828", "parameters": "PDSC Peak Max / PDSC Induction Time: unit not given here", "protocol": "(§1) Photo-DSC/DSC: Standard (hermetic) liquid sample pans were used. Sample size was kept in the 6 to 8 mg range. Samples were tested using a Dupont Photo-DSC/DSC instrument (available from DuPont, Wilmington, Del.). The light source was a 200 W Hg lamp that delivered about 60 mw/cm at the sample. Samples were exposed in open pans for 5 minutes to the light source at 30° C. then removed from the instrument, sealed and a standard DSC scan run at 10° C./minute to 300° C. A separate DSC experiment was carried out using a sealed sample pan and no prior light exposure to determine the dark reactivity of these PAGs. Comparison of the DSC traces before and after light exposure enables differentiation between the thermal reactivity of the PAGs (in the dark) and their photochemical activity.\n(§2) This example describes photo-DSC/DSC experiments designed to quantitatively compare the relative cationic curing reactivities of PAGs of the present invention containing difunctional fluoroorganic sulfonate anions with related PAGs having identical cations and monofunctional perfluoroalkanesulfonate anions. Relative reactivities were measured in three different cationically polymerizable monomer systems, including two different types of epoxies and one vinyl ether.\n(§3) The photo-DSC experiment provides information on the photo-cure speed at 30° C. as measured by the induction time (onset) and time to reach the peak maximum in the curing exotherm. […] The energy released under the curing exotherm is a measure of the extent of cure; larger values mean more cure has taken place during the light exposure. […] Comparison with the DSC traces recorded with no prior light exposure provides a measure of the increase in activity after photoactivation of the PAG.\n(§4) General: Stock solutions of three cationically curable monomers were prepared as shown in Table 3 with 0.1% (w/w) isopropylthioxanthone (ITX). Epon 828 is a difunctional glycidyl ether epoxy from Shell, ERL-4221 is a difunctional cycloaliphatic epoxy from Union Carbide and VEX 5015 is a trifunctional vinyl ether from Allied Signal. Because of the low sensitivity of these compositions to room lights, all sample preparation was done with the lab lights on but the hood lights off. All PAGs were formulated at 1.0% by weight in the stock monomer/sensitizer solutions. Into a small aluminum pan was weighed 0.02 g of PAG and 0.04 g of propylene carbonate used to promote dissolution of the PAG in the monomer. The pan was heated briefly on a hot plate set at 100° C. to dissolve the PAG, then 2.0 g the stock monomer/sensitizer solution was added. The solution was briefly heated again on a hot plate set at 100° C. to allow complete mixing of the components, then the solution was allowed to cool to room temperature before using."}, "[4]": {"experiment": "Photo-DSC/DSC cationic curing activity of PAGs in VEX 5015", "parameters": "PDSC Peak Max / PDSC Induction Time: unit not given here", "protocol": "as §1, §2, §3, §4"}, "[5]": {"experiment": "Photo-DSC/DSC cationic curing activity of PAGs in ERL-4221", "parameters": "PDSC Peak Max / PDSC Induction Time: unit not given here", "protocol": "as §1, §2, §3, §4"}, "[6]": {"experiment": "Elimination of perfluoroalkylsulfonates from the body", "assay_type": "in vivo", "conditions": "tested in the form of its potassium salt"}, "[7]": {"conditions": "Epon 828, DSC scan after light exposure"}, "[8]": {"conditions": "Epon 828, no prior light exposure"}, "[9]": {"conditions": "VEX 5015, DSC scan after light exposure, two values = two exotherms"}, "[10]": {"conditions": "ERL-4221, DSC scan after light exposure"}, "[11]": {"conditions": "ERL-4221, no prior light exposure"}},
  "note": "Values joined by “and” are separate entries in the source; they are usually repeats but may differ in a detail not shown here. Identical values can stand only once.",
  "data": [
    {"molecule": "O=S(=O)(O)C(F)(F)C(F)(F)C(F)(F)C(F)(F)C(F)(F)C(F)(F)C(F)(F)C(F)(F)F", "note": "[C8F17SO3H]", "values": [
      {"measurement": "head temperature of distillation", "setting": "[1]; 8.00 Torr, from 100% H2SO4", "value": "135–142 °C"},
      {"measurement": "pot temperature of distillation", "setting": "[1]; 8.00 Torr, from 100% H2SO4", "value": "148–157 °C"}
    ]},
    {"molecule": "O=S(=O)(O)C(F)(F)C(F)(F)C(F)(F)C(F)(F)S(=O)(=O)O", "note": "[HO3S(CF2)4SO3H]", "values": [
      {"measurement": "volatility: outcome of vacuum distillation", "setting": "[1]; from 100% H2SO4, down to 1.75 Torr, pot temperature up to 196° C.", "value": "did not distill"}
    ]},
    {"molecule": "CC(C)(C)c1ccc([I+]c2ccc(C(C)(C)C)cc2)cc1.CC(C)(C)c1ccc([I+]c2ccc(C(C)(C)C)cc2)cc1.O=S(=O)([O-])C(F)(F)C(F)(F)C(F)(F)C(F)(F)S(=O)(=O)[O-]", "note": "[PAG2, [(p-(CH3)3C—C6H4)2I^+]2-O3S(CF2)4SO3—]", "values": [
      {"measurement": "onset of thermal decomposition (TGA)", "setting": "[2]", "value": 237, "unit": "°C"},
      {"measurement": "PDSC Energy", "setting": "[3]; Epon 828, 1.0% PAG, 0.1% ITX, light exposure 5 min at 30° C.", "value": 7, "unit": "J/g"},
      {"measurement": "DSC after PDSC Onset Temp", "setting": "[3]; Epon 828, DSC scan 10° C./minute after light exposure", "value": 110, "unit": "C.°"},
      {"measurement": "DSC after PDSC Energy", "setting": "[3]; [7]", "value": 541, "unit": "J/g"},
      {"measurement": "DSC after PDSC Peak Max", "setting": "[3]; [7]", "value": 194, "unit": "°C"},
      {"measurement": "PDSC Induction Time", "setting": "[3]; Epon 828, light exposure at 30° C.", "value": 17.1},
      {"measurement": "DSC Only (dark) Energy", "setting": "[3]; [8]", "value": 574, "unit": "J/g"},
      {"measurement": "DSC Only (dark) Onset Temp", "setting": "[3]; [8]", "value": 175, "unit": "C.°"},
      {"measurement": "DSC Only (dark) Peak Max", "setting": "[3]; [8]", "value": 232, "unit": "°C"},
      {"measurement": "PDSC Peak Max", "setting": "[3]; Epon 828, time to peak maximum of curing exotherm at 30° C.", "value": 27},
      {"measurement": "PDSC Energy", "setting": "[4]; VEX 5015, 1.0% PAG, 0.1% ITX, light exposure 5 min at 30° C.", "value": 220, "unit": "J/g"},
      {"measurement": "DSC after PDSC Energy", "setting": "[4]; VEX 5015, DSC scan after light exposure", "value": 31, "unit": "J/g"},
      {"measurement": "DSC after PDSC Onset Temp", "setting": "[4]; [9]", "value": 135, "unit": "C.°"},
      {"measurement": "DSC after PDSC Peak Max", "setting": "[4]; [9]", "value": 158, "unit": "°C"},
      {"measurement": "PDSC Induction Time", "setting": "[4]; VEX 5015, light exposure at 30° C.", "value": 1.3},
      {"measurement": "DSC Only (dark) Onset Temp", "setting": "[4]; VEX 5015, no prior light exposure, two values = two exotherms", "value": "100, C.° and 160 C.°"},
      {"measurement": "PDSC Peak Max", "setting": "[4]; VEX 5015, time to peak maximum of curing exotherm at 30° C.", "value": 3.4},
      {"measurement": "solubility in PGMEA", "value": "greater than 4 wt %"},
      {"measurement": "PDSC Energy", "setting": "[5]; ERL-4221, 1.0% PAG, 0.1% ITX, light exposure 5 min at 30° C.", "value": 10, "unit": "J/g"},
      {"measurement": "DSC after PDSC Onset Temp", "setting": "[5]; ERL-4221, DSC scan 10° C./minute after light exposure", "value": 60, "unit": "C.°"},
      {"measurement": "DSC after PDSC Energy", "setting": "[5]; [10]", "value": 538, "unit": "J/g"},
      {"measurement": "DSC after PDSC Peak Max", "setting": "[5]; [10]", "value": 142, "unit": "°C"},
      {"measurement": "PDSC Induction Time", "setting": "[5]; ERL-4221, light exposure at 30° C.", "value": 14.8},
      {"measurement": "DSC Only (dark) Energy", "setting": "[5]; [11]", "value": 574, "unit": "J/g"},
      {"measurement": "DSC Only (dark) Onset Temp", "setting": "[5]; [11]", "value": 150, "unit": "C.°"},
      {"measurement": "DSC Only (dark) Peak Max", "setting": "[5]; [11]", "value": 196},
      {"measurement": "PDSC Peak Max", "setting": "[5]; ERL-4221, time to peak maximum of curing exotherm at 30° C.", "value": 25}
    ]},
    {"molecule": "O=S(=O)(O)C(F)(F)C(F)(F)C(F)(F)C(F)(F)F", "note": "[perfluorobutylsulfonate]", "values": [
      {"measurement": "elimination from the body", "setting": "[6]", "value": "eliminates from the body more effectively than perfluorohexylsulfonate and much more effectively than perfluorooctylsulfonate"}
    ]}
  ]
}
